Experimental data from ChEMBL document CHEMBL1201862, “PubChem BioAssay data set” (2004).
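Cells were grown in 96-well plates and exposed to each compound for 48 hours at five concentrations; endpoints were interpolated linearly between bracketing concentrations, or set to the highest concentration if not reached. GI50 is the concentration that inhibits growth by half.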 The source made the active and inactive calls. Rule as the data show it: active = GI50 up to about 1.1 µM and inactive = higher.

How the values were obtained:
Assay in all cases: growth of human tumour cells (NCI), 48 h
786-0 = tested on: 786-0
BT-549 = tested on: BT-549
CCRF-CEM = tested on: CCRF-CEM
COLO 205 = tested on: COLO 205
HCC 2998 = tested on: HCC 2998
K562 = tested on: K562
KM-20L2 = tested on: KM-20L2
MDA-N = tested on: MDA-N
Malme-3M = tested on: Malme-3M
NCI-H226 = tested on: NCI-H226
NCI-H23 = tested on: NCI-H23
OVCAR-5 = tested on: OVCAR-5
SF-295 = tested on: SF-295
SF-539 = tested on: SF-539
SK-OV-3 = tested on: SK-OV-3
SN12C = tested on: SN12C
SNB-19 = tested on: SNB-19
SNB-75 = tested on: SNB-75
SR = tested on: SR
MDA-MB-231 = tested on: MDA-MB-231

Measured: GI50

N#C/C(=C\c1c[nH]c2ccccc12)C(=O)c1ccc(O)c(O)c1
inactive: 786-0 22.8 µM | BT-549 11.1 µM | CCRF-CEM 5.87 µM | COLO 205 32.7 µM | HCC 2998 32.5 µM | K562 23.2 µM | KM-20L2 55.5 µM | MDA-N 47.1 µM | Malme-3M > 47.9 µM | NCI-H226 47.4 µM | NCI-H23 45.8 µM | OVCAR-5 33 µM | SF-295 14.6 µM | SF-539 25.6 µM | SK-OV-3 43.5 µM | SN12C 23.1 µM | SNB-19 32.4 µM | SNB-75 41 µM | SR 9.82 µM

CC(=O)C1=C(C)Cn2c(=O)c3ccccc3c(=O)n2C1
inactive: 786-0 > 100 µM | CCRF-CEM > 100 µM | COLO 205 > 100 µM | HCC 2998 > 100 µM | K562 > 100 µM | KM-20L2 > 100 µM | Malme-3M > 100 µM | NCI-H226 > 100 µM | NCI-H23 > 100 µM | OVCAR-5 > 100 µM | SF-295 > 100 µM | SF-539 > 100 µM | SK-OV-3 > 100 µM | SN12C > 100 µM | SNB-19 > 100 µM | SNB-75 > 100 µM | SR > 100 µM

N#C/C(=C\c1cc2ccccc2c2ccccc12)c1ccccc1
inactive: 786-0 5.43 µM | CCRF-CEM 3.59 µM | COLO 205 3.43 µM | HCC 2998 11 µM | K562 3.13 µM | KM-20L2 3.9 µM | Malme-3M 4.86 µM | NCI-H226 43.8 µM | NCI-H23 > 30.5 µM | OVCAR-5 45.4 µM | SF-295 5.93 µM | SF-539 6.15 µM | SK-OV-3 6.73 µM | SN12C 9.59 µM | SNB-19 8.99 µM | SNB-75 2.31 µM | SR 2.9 µM

CCOC(=O)C1=C(C(=O)OCC)C2c3ccccc3C=CN2C(C(=O)OCC)=C(SC)S1 (stereo not drawn)
inactive: 786-0 > 100 µM | CCRF-CEM 30.8 µM | COLO 205 91.6 µM | HCC 2998 > 100 µM | K562 41.8 µM | KM-20L2 > 100 µM | Malme-3M > 100 µM | NCI-H226 > 100 µM | NCI-H23 87.1 µM | OVCAR-5 > 100 µM | SF-295 > 100 µM | SF-539 > 100 µM | SK-OV-3 > 100 µM | SN12C 98.4 µM | SNB-19 > 100 µM | SNB-75 > 100 µM | SR 19.3 µM

Cn1ncc2c(c1=O)Nc1ccccc1S2(=O)=O
inactive: 786-0 28.4 µM | CCRF-CEM 61.1 µM | COLO 205 54.7 µM | HCC 2998 > 100 µM | K562 > 100 µM | KM-20L2 > 100 µM | Malme-3M > 100 µM | NCI-H226 > 100 µM | NCI-H23 > 100 µM | OVCAR-5 > 100 µM | SF-295 > 100 µM | SF-539 21.6 µM | SK-OV-3 > 100 µM | SN12C > 100 µM | SNB-19 > 100 µM | SNB-75 > 100 µM | SR 51.3 µM

O=C(Nc1nc2ncn(CCOC(=O)c3ccccc3)c2c(=O)[nH]1)c1ccccc1
inactive: 786-0 15.8 µM | CCRF-CEM 9.71 µM | COLO 205 8.47 µM | HCC 2998 97.9 µM | K562 3.05 µM | KM-20L2 6.9 µM | MDA-MB-231 3.79 µM | MDA-N 2.54 µM | Malme-3M 42.3 µM | NCI-H226 28.4 µM | NCI-H23 20.1 µM | OVCAR-5 > 100 µM | SF-295 12.9 µM | SF-539 10.8 µM | SK-OV-3 > 50.7 µM | SN12C 11.8 µM | SNB-19 17.3 µM | SNB-75 18.9 µM | SR 5.35 µM

CC(=O)N1C/C(=C\c2ccc(N(C)C)cc2)C(=O)/C(=C/c2ccc(N(C)C)cc2)C1
inactive: 786-0 39.4 µM | CCRF-CEM 46.9 µM | COLO 205 > 10 µM | HCC 2998 58.2 µM | K562 60 µM | KM-20L2 28.7 µM | Malme-3M 75.7 µM | NCI-H226 57.9 µM | NCI-H23 > 100 µM | OVCAR-5 > 100 µM | SF-295 52.6 µM | SF-539 27.1 µM | SK-OV-3 55.7 µM | SN12C 72.3 µM | SNB-19 24.8 µM | SNB-75 17.2 µM | SR 35.6 µM
